One data set has as its system MIA Paca-2 cells. Description: MIA Paca-2 MTT viability test. The class given is cell-based, human. To be noted: 120 μM/L, 2 hours. The procedure:
(§1) MIA Paca-2 cells are human pancreatic cancer cells [American Tissue Cell Culture (ATCC, Manassas, Va., USA)] cultured in DMEM medium. The MTT viability test is performed at a cell density of 0.1×10*6 cells/mL. The tested products are incubated for 2 hours at a concentration of 120 μM/L and in triplicate, with culture control (ref: Blank) (100%) and a positive DMSO control (5%). Under these conditions, cell viability is 34% in the presence of FAD alone, 6% with FAD-PEG.
A general note: Tetrazolium dyes change colour on reduction, which living cells bring about.

In data set [1] the test system is murine breast cancer cell line 4T1. Description: 4T1 breast cancer model in mice. The following applies: compared to control groups. The class given is in vivo, BALB/c mice.
Data set [2] concerns HT-1080 fibrosarcoma cells. As to the kind of experiment: Viability of HT-1080 cells. The class given is cell-based. The following applies: Homo sapiens.
The subject of data set [3] is HT22 cells (murine brain tumour). As to the kind of experiment: HT22 growth inhibition, MTS test. The class given is cell-based. As to the method:
HT22 cells (murine brain tumour) are tested with the gold-FAD-PEG particle obtained by the IN method.

Data set [4] can be described thus: Resistance to hydrolysis in serum. The class given is in vitro ADME. The following applies: 20 hours. The procedure:
A comparative hydrolysis test of unbound FAD and micrometer-sized FAD-PEG obtained in Example 7 is performed in serum to test resistance to enzymes.

The subject of data set [5] is MiaPaCA2 pancreatic cancer. Description: Viability of MiaPaCA2 cells (Example 14). The class given is cell-based.
The subject of another data set is cancer cells in culture. Description: Growth inhibition of cancer cells in culture. To be noted: read-out: inhibitory concentration (IC50) reducing growth of cancer cells in culture by 50%. The class given is cell-based.
The test system of data set [6] is Mouse HEP 1-6 liver cancer cells. Description: HEP 1-6 liver cancer model in mice. The class given is in vivo.
In a further data set the test system is DNA aptamer. As to the kind of experiment: Intercalation in DNA aptamer grafted on gold nanoparticles. The class given is binding. To be noted: 5 mg/ml, UV visible and RAMAN. From the text:
Small molecules with aromatic structures are intercalated into DNA, which is the case of some extremely powerful and effective drugs. The hypothesis that FAD intercalates into DNA has been tested using a DNA aptamer grafted onto the surface of nanoparticles (NP).
The aptamer used is a single-stranded, thiolated DNA sequence of formula 5′HS-TT TTTTTTTTTTTTTTCTTCTCTAGCTGAATAACCGGAAGTAACTCATCGTTTCGATGAGTTACTTCCGGTTATTCAGCTAGAGAAG 3′, grafted to the surface of gold nanoparticles in the presence of a catalyst agent (N-[3-(dimethylamino) propyl]-N′-ethylcarbodiimide/N-hydroxysuccinimide, Sigma-Aldrich) (EDC/NHS), 50 μL, of DNA with a ratio (40 mg/10 mg) to 5 ml of gold NP solution, to allow activation of the carboxylic group (PEG-COOH) on the surface of the nanoparticles for immobilisation of the aptamer by covalent bonds. The bond is made between the carboxyl group of the EDC/NHS-activated PEG and the NH2 groups of the aptamer.
The grafting of the DNA on the surface of the gold nanoparticles is verified by UV spectroscopy (UV-visible absorbance measurements).
The particles were then placed in the presence of FAD or FAG-PEG (5 mg/ml, two formulations) and DNA intercalation, detected and measured by two techniques: UV visible and by RAMAN spectroscopy.

The test system of the next data set is Huh-7replicon. Description: Viability of Huh-7replicon cells. The class given is cell-based.
The test system of data set [7] is Nucleo PyroPhosphatase enzyme. As to the kind of experiment: Protection of FAD against Nucleo PyroPhosphatase hydrolysis (HPLC). The class given is in vitro ADME. The following applies: 25° C. As to the method: FAD protection in particles in comparison with unbound FAD is studied. Different particles containing FAD are compared to unbound FAD: • The FAD encapsulated with a gold FAD-PEG particle ON is obtained by the ON method described in example 2. • The FAD encapsulated with a gold-FAD-PEG particle IN is obtained by the IN method obtained in example 1. The different particles and the unbound FAD are each placed in a solution of the Nucleo PyroPhosphatase enzyme at 25° C. The concentration of the FAD is monitored over time by HPLC assay.

Data set [8] is described as follows: MIA Paca-2 MTT viability test. To be noted: human, MIA Paca-2 cells, read-out: cell viability. The class given is cell-based, human. As to the method:
as §1

Data set [9] has as its system Monocytes isolated from peripheral blood (PBMC). As to the kind of experiment: Viability of non-cancerous peripheral blood monocytes (PBMC). The class given is cell-based.
The subject of data set [10] is CEM (myeloid leukaemia) cells. As to the kind of experiment: Viability of CEM myeloid leukaemia cells. The class given is cell-based. To be noted: 48 hours incubation; read-out: mean IC50, viability of cancer cells in the lineage.
The test system of data set [11] is HepG2 hepatocellular carcinoma. As to the kind of experiment: Viability of HepG2 cells. The following applies: Homo sapiens. The class given is cell-based.
Data set [12] relates to MCF7 (breast cancer) cancer cells. Description: MCF7 growth inhibition, MTS test. The class given is cell-based. To be noted: 48 hours. As to the method:
Growth inhibition of MCF7 (breast cancer) cancer cells is tested on MCF7 cells in culture for 48 hours in contact with the gold-FAD-PEG particle with or without a targeting agent obtained by the IN method. […] (Promega—Cell Titer Proliferation Assay).

Each structure is given as a SMILES string. pIC50: −log10 of the molar value.

As a reminder, the cell viability is the share of living cells, or the viability signal relative to a control. Read a low cell viability as more harm to the cells. In turn, `C[S+](C)[O-]` [DMSO, reference compound] registered a cell viability in the data set with MIA Paca-2 cells of 5%.
By viability is commonly meant a read-out of living cells in per cent, often relative to untreated cells. Turning to `Cc1cc2nc3c(=O)[nH]c(=O)nc-3n(CC(O)C(O)C(O)COP(=O)(O)OP(=O)(O)OC[C@H]3O[C@@H](n4cnc5c(N)ncnc54)C(O)C3O)c2cc1C` (stereo partly drawn) [FAD, Flavin Adenine Dinucleotide], the IL-10 content entry in data set [1] was “significantly increased”. The “level of IL-1α” value in [1] is “significantly reduced”. For the same compound, the “level of IL-1 β” value in data set [1] is reported as “significantly reduced”. Further, the “level of IL-6” value in data set [1] is recorded as “significantly reduced”. The “level of IL-12P70” value in [1] is listed as “significantly reduced”. For the same compound, the “level of TNF α” value in data set [1] is on record as “significantly reduced”. For the same compound, the pIC50 was 5.74 to 5.96 in data set [2]; 5.80 in [3] (Mus musculus, HT-22, Example 14, read-out: IC50, viability of HT22 neuronal cancer cells); 5.00 in data set [5] (Homo sapiens, MIA PaCa-2, MiaPaCA2); 5.30 to 6.30 in the data set with cancer cells in culture; 5.74 to 5.96 in the data set on Huh-7replicon; under 4.00 in data set [9] (48 hours incubation, read-out: IC50, viability of primary non-cancerous cells). Moreover, the pIC50 in data set [10] is 5.80; in data set [11], 5.74 to 5.96. For the same compound, the hydrolysis in serum entry in [4] was “almost completely hydrolyzed”. For the same compound, the “viability of the cells” value in [5] (90 μM, 24 hours of exposure) was “significantly altered”. Besides, the “reduction in tumour volume” value in data set [6] was 24%. Moreover, in the data set with DNA aptamer, the DNA intercalation entry is recorded as “intercalates to DNA”. Further, the “time to full hydrolysis of FAD” value in data set [7] is at most 15 min. Besides, in data set [8], the viability at 2 hours, 120 μM/L was determined as 34%. Also, in [9] (normal blood monocytes PBM cells), the GI50 is over 100 µM.
Turning to `CN[C@@H]1C[C@H]2O[C@@](C)([C@@H]1OC)n1c3ccccc3c3c4c(c5c6ccccc6n2c5c31)C(=O)NC4` [staurosporin, reference compound], the GI50 in [12] is about 40 µM; in [3] (read-out: 50% growth inhibition (GI 50), 48 hours, MTS), 2.7 µM.

The values above are taken from US20220008451A1, “FLAVIN ADENINE DINUCLEOTIDE (FAD) FOR USE IN THE PREVENTION AND/OR TREATMENT OF CANCER” (priority 2018, published 2022).
